Data reported in paper PMC6979384, “Characterization of the plant homeodomain (PHD) reader family for their histone tail interactions” (Epigenetics & Chromatin, 2020).

How the values were obtained:
Assay in all cases: Histone peptide microarray
Assay type in all cases: binding, human
[1] = system: ING4; conditions: ING4, GST-tagged; arrays performed twice, n of 4
Procedure, shortened: (§1)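 Binding read as mean relative signal from 4 replicates; microarray held 293 synthetic histone peptides with single or combinatorial PTMs. Each GST-tagged PHD reader was applied at 0.5 μM using the optimized Petell protocol.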

[2] = system: RAG2; conditions: RAG2, GST-tagged; arrays performed twice, n of 4
Procedure, shortened: as §1

[3] = system: ING3; conditions: ING3, GST-tagged; arrays performed twice, n of 4
Procedure, shortened: as §1

[4] = system: PHF23; conditions: PHF23, GST-tagged; arrays performed twice, n of 4
Procedure, shortened: as §1

[5] = system: TAF3; conditions: TAF3, GST-tagged; arrays performed twice, n of 4
Procedure, shortened: as §1

[6] = system: SP140L; conditions: SP140L, GST-tagged; arrays performed twice, n of 4
Procedure, shortened: as §1

[7] = system: ING5; conditions: ING5, GST-tagged; arrays performed twice, n of 4
Procedure, shortened: as §1

[8] = system: KDM5A (1); conditions: KDM5A (1), GST-tagged; arrays performed twice, n of 4
Procedure, shortened: as §1

[9] = system: CHD5 (PPCC); conditions: CHD5 (PPCC), GST-tagged; arrays performed twice, n of 4
Procedure, shortened: as §1

[10] = system: CHD5 (PCC); conditions: CHD5 (PCC), GST-tagged; arrays performed twice, n of 4
Procedure, shortened: as §1

[11] = system: ING1; conditions: ING1, GST-tagged; arrays performed twice, n of 4
Procedure, shortened: as §1

[12] = system: PHF13; conditions: PHF13, GST-tagged; arrays performed twice, n of 4
Procedure, shortened: as §1

[13] = system: DPF2 (PPC2W2); conditions: DPF2 (PPC2W2), GST-tagged; arrays performed twice, n of 4
Procedure, shortened: as §1

[14] = system: PHF8; conditions: PHF8, GST-tagged; arrays performed twice, n of 4
Procedure, shortened: as §1

[15] = system: BPTF (PB); conditions: BPTF (PB), GST-tagged; arrays performed twice, n of 4
Procedure, shortened: as §1

[16] = system: CHD4 (PPCC); conditions: CHD4 (PPCC), GST-tagged; arrays performed twice, n of 4
Procedure, shortened: as §1

[17] = system: DIDO1; conditions: DIDO1, GST-tagged; arrays performed twice, n of 4
Procedure, shortened: as §1

[18] = system: KDM5A (3); conditions: KDM5A (3), GST-tagged; arrays performed twice, n of 4
Procedure, shortened: as §1

[19] = system: PHF21A; conditions: PHF21A, GST-tagged; arrays performed twice, n of 4
Procedure, shortened: as §1

[20] = system: ING2; conditions: ING2, GST-tagged; arrays performed twice, n of 4
Procedure, shortened: as §1

[21] = system: KDM4C (TTP); conditions: KDM4C (TTP), GST-tagged; arrays performed twice, n of 4
Procedure, shortened: as §1

[22] = system: KDM5B (1); conditions: KDM5B (1), GST-tagged; arrays performed twice, n of 4
Procedure, shortened: as §1

[23] = system: BAZ2B; conditions: BAZ2B, GST-tagged; arrays performed twice, n of 4
Procedure, shortened: as §1

[24] = system: PHF2; conditions: PHF2, GST-tagged; arrays performed twice, n of 4
Procedure, shortened: as §1

[25] = system: AIRE (PP); conditions: AIRE (PP), GST-tagged; arrays performed twice, n of 4
Procedure, shortened: as §1

[26] = system: PHRF1 (RP); conditions: PHRF1 (RP), GST-tagged; arrays performed twice, n of 4
Procedure, shortened: as §1

[27] = system: KDM5B (3); conditions: KDM5B (3), GST-tagged; arrays performed twice, n of 4
Procedure, shortened: as §1

[28] = system: TRIM66 (PB); conditions: TRIM66 (PB), GST-tagged; arrays performed twice, n of 4
Procedure, shortened: as §1

[29] = system: KDM7A; conditions: KDM7A, GST-tagged; arrays performed twice, n of 4
Procedure, shortened: as §1

[30] = system: MLL5; conditions: MLL5, GST-tagged; arrays performed twice, n of 4
Procedure, shortened: as §1

[31] = system: MORC3 (CW); conditions: MORC3 (CW), GST-tagged; arrays performed twice, n of 4
Procedure, shortened: as §1

## H3K27acK36me1 (21-44): H3 21-44
[1]
  Array Heatmap value (peptide array binding signal): 0.5489
[2]
  Array Heatmap value (peptide array binding signal): 0.2901
[3]
  Array Heatmap value (peptide array binding signal): 0.5657
[4]
  Array Heatmap value (peptide array binding signal): 0.594
[5]
  Array Heatmap value (peptide array binding signal): 0.3058
[6]
  Array Heatmap value (peptide array binding signal): 0.402
[7]
  Array Heatmap value (peptide array binding signal): 0.4437
[8]
  Array Heatmap value (peptide array binding signal): 0.5728
[9]
  Array Heatmap value (peptide array binding signal): 0.6612
[10]
  Array Heatmap value (peptide array binding signal): 0.8019
[11]
  Array Heatmap value (peptide array binding signal): 0.6463
[12]
  Array Heatmap value (peptide array binding signal): 0.7148
[13]
  Array Heatmap value (peptide array binding signal): 0.7332
[14]
  Array Heatmap value (peptide array binding signal): 0.4123
[15]
  Array Heatmap value (peptide array binding signal): 0.4151
[16]
  Array Heatmap value (peptide array binding signal): 0.6736
[17]
  Array Heatmap value (peptide array binding signal): 0.819
[18]
  Array Heatmap value (peptide array binding signal): 0.5161
[19]
  Array Heatmap value (peptide array binding signal): 0.5223
[20]
  Array Heatmap value (peptide array binding signal): 0.6555
[21]
  Array Heatmap value (peptide array binding signal): 0.5731
[22]
  Array Heatmap value (peptide array binding signal): 0.7243
[23]
  Array Heatmap value (peptide array binding signal): 0.5322
[24]
  Array Heatmap value (peptide array binding signal): 0.6877
[25]
  Array Heatmap value (peptide array binding signal): 0.4899
[26]
  Array Heatmap value (peptide array binding signal): 0.5526
[27]
  Array Heatmap value (peptide array binding signal): 0.4928
[28]
  Array Heatmap value (peptide array binding signal): 0.6284
[29]
  Array Heatmap value (peptide array binding signal): 0.3972
[30]
  Array Heatmap value (peptide array binding signal): 0.6075
[31]
  Array Heatmap value (peptide array binding signal): 0.41
